The results in this text go back to patent publication US20260159533A1, “INHIBITORS OF COMPLEMENT FACTORS AND USES THEREOF” (Annexon, Inc., priority 2022, published 2026).

This experiment addresses T1, human C1s protein (Homo sapiens, UniProt P09871).
T1 construct: purchased R&D Systems or Complement Technologies 2060-SE or A104
T1 sequence (P09871 16-688): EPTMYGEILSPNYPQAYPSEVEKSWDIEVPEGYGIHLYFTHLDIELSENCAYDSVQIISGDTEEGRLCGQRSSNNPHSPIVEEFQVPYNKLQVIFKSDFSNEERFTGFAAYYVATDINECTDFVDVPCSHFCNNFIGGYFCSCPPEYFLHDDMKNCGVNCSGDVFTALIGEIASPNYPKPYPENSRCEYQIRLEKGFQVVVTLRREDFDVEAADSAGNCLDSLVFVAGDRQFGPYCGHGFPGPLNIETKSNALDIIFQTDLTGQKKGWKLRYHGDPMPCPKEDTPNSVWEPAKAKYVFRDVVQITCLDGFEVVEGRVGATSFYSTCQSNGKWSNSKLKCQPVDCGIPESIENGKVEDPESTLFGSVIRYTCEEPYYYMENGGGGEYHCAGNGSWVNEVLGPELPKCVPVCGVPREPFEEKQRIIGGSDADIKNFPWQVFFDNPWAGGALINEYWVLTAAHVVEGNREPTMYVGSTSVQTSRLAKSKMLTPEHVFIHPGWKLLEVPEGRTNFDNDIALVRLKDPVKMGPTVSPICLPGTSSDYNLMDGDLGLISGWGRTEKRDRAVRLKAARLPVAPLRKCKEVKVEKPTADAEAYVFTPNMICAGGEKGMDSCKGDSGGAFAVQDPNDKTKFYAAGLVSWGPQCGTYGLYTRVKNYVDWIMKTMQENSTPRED
The experiment can be described thus: recombinant C1s enzymatic assay (YLGR-Rh110-dPro substrate hydrolysis, fluorescence). Format: biochemical. The note with it: recombinant human C1s 2.5 nM, substrate YLGR-Rh110-dPro 20 μM, 15 min pre-incubation, 60 min RT; read-out: rec. hC11s pIC50 (converted). As for the experimental part: Compound testing in the purified or recombinant C1s enzymatic assay C1s is a serine protease; its enzymatic activity is measured in vitro by the hydrolysis of the synthetic substrate YLGR-Rh110-dPro (Kerr F K, O'Brien G, Quinsey N S, Whisstock J C, Boyd S, de la Banda M G, Kaiserman D, Matthews A Y, Bird P I, Pike R N. Elucidation of the substrate specificity of the Cis protease of the classical complement pathway. J. Biol. Chem. (2005) 280, 39510-39514). The enzyme cleaves the substrate with the release of Rh110 which is highly fluorescent. Cis inhibitors prevent the hydrolysis of the substrate thus resulting in a decrease of the signal.
The recombinant C1s enzymatic assay is performed using the human C1s protein (R&D Systems, 2060-SE or Complement Technologies, A104). The assay buffer composition is: 50 mM HEPES pH 7.5 (Sigma, H3375), 150 mM NaCl (Sigma, S7653), 0.2% PEG 8000 (VWR, AA43443-22), 0.01% Pluronic F127 (Sigma, P2243). On the day of the experiment 0.1 mg/mL BSA (Sigma, B4287) is added fresh to the buffer. The test item stock solutions are serially diluted 1:3 or 1:4 or 1:5 with DMSO, 11-point curves, in a 384-well compound plate. Nafamostat concentration curve is always included in the assay plate as a reference control.
The assay plate is prepared by dispensing 0.25 μL from compound plate into a 384-well black assay plate (assay plate, Greiner Fluotrac 200, 781076, VWR 736-0140). The high controls are prepared dispensing in 0.25 μL DMSO in column 23, rows AH or AP and low controls with 0.25 μL of 0.1 μM Nafamostat. Cis solution is prepared as 2× of the 2.5 nM final assay concentration. The YLGR-Rh110-dPro substrate is prepared as 2× of the final assay concentration of 20 μM. 5 μL/well of 2× enzyme solution is dispensed and pre-incubated for 15 min with the compounds. The enzymatic reaction is the started with 5 μL/well of the 2× substrate solution. The plate is incubated for 60 min RT in the dark and fluorescence is measured (ex 485/em 535 nm) using an Envision (PerkinElmer) or an equivalent instrument.

The structures appear in SMILES notation. Structures can show the parent of a compound that is named as a salt.

Turning to `Nc1cnnc2cc(-c3cc4c(cc3-c3nccs3)OCCOB4O)ccc12` [Example 76, 7-(1-hydroxy-7-thiazol-2-yl-3,4-dihydro-2,5,1-benzodioxaborepin-8-yl)cinnolin-4-amine], the IC50 was 1.45 nM.
As for `CC1COB(O)c2cc(-c3ccc4c(N)cnnc4c3)c(-n3cccn3)cc2O1` (stereo not shown) [Example 71, 7-(1-hydroxy-4-methyl-7-pyrazol-1-yl-3,4-dihydro-2,5,1-benzodioxaborepin-8-yl)cinnolin-4-amine], the IC50 is 2.09 nM.
The value for `COc1cc(-c2cn[nH]c2)c(-c2ccc3c(N)cnnc3c2)cc1B(O)O` [Example 54, [5-(4-aminocinnolin-7-yl)-2-methoxy-4-(1H-pyrazol-4-yl)phenyl]boronic acid] was 6.31 nM; that for `Nc1cnnc2cc(-c3cc4c(cc3-n3cccn3)OCCOB4O)ccc12` [Example 70, 8-(4-aminocinnolin-7-yl)-7-(1H-pyrazol-1-yl)-3,4-dihydro-1H-2,5,1-benzodioxaborepin-1-ol] was 1.26 nM.
The value for `COc1cc(-c2ncc(C)o2)c(-c2ccc3c(N)cnnc3c2)cc1B(O)O` [Example 88, [5-(4-aminocinnolin-7-yl)-2-methoxy-4-(5-methyloxazol-2-yl)phenyl]boronic acid formic acid salt] was 0.724 nM.
The value for `COc1cc(B(O)O)cc(-c2ccc3c(N)cnnc3c2)c1-n1cc(C(F)F)cn1` [Example 30, [3-(4-aminocinnolin-7-yl)-4-[4-(difluoromethyl)-1H-pyrazol-1-yl]-5-methoxyphenyl]boronic acid formic acid salt] was 2.24 nM; that for `COc1cc(-c2ncc(C)s2)c(-c2ccc3c(N)cnnc3c2)cc1B(O)O` [Example 50, [5-(4-aminocinnolin-7-yl)-2-Methoxy-4-(5-methylthiazol-2-yl)phenyl]boronic acid formic acid salt] was 1.17 nM.
Regarding `CC(C)Oc1cc(-n2cccn2)c(-c2ccc3c(N)cnnc3c2)cc1B(O)O` [Example 39, [5-(4-aminocinnolin-7-yl)-2-propan-2-yloxy-4-pyrazol-1-ylphenyl]boronic acid formic acid salt], the IC50 was 2.69 nM.
Consider `CNC(=O)c1ccn(-c2ccc(B(O)O)cc2-c2ccc3c(N)cnnc3c2)n1` [Example 6, [3-(4-aminocinnolin-7-yl)-4-[3-(methylcarbamoyl)-1H-pyrazol-1-yl]phenyl]boronic acid], for which the IC50 was 29.5 nM.
For `Nc1cnnc2cc(-c3cc(B(O)O)ccc3-c3ccccn3)ccc12` [Example 63, [3-(4-aminocinnolin-7-yl)-4-(2-pyridyl)phenyl]boronic acid formic acid salt] the value was 15.5 nM.
For `Nc1cnnc2cc(-c3cc(B(O)O)ccc3-n3nccn3)ccc12` [Example 15, [3-(4-aminocinnolin-7-yl)-4-(2H-1,2,3-triazol-2-yl)phenyl]boronic acid formic acid salt] the value was 0.933 nM; for `Nc1cnnc2cc(-c3cc(B(O)O)ccc3-n3cccn3)ccc12` [Example 1, [3-(4-aminocinnolin-7-yl)-4-(1H-pyrazol-1-yl)phenyl]boronic acid], 3.24 nM; for `COC(=O)c1cn(-c2ccc(B(O)O)cc2-c2ccc3c(N)cnnc3c2)cn1` [Example 4, [3-(4-aminocinnolin-7-yl)-4-[4-(methoxycarbonyl)-1H-imidazol-1-yl]phenyl]boronic acid], 38.9 nM.
The value for `COc1cc(-n2cc(F)cn2)c(-c2ccc3c(N)cnnc3c2)cc1B(O)O` [Example 40, [5-(4-aminocinnolin-7-yl)-4-(4-fluoropyrazol-1-yl)-2-methoxyphenyl]boronic acid] was 1.58 nM; that for `Nc1cnnc2cc(-c3cc(B(O)O)cnc3-n3cccn3)ccc12` [Example 13, [5-(4-aminocinnolin-7-yl)-6-(1H-pyrazol-1-yl)pyridin-3-yl]boronic acid] was 4.47 nM.
Take `Nc1cnnc2cc(-c3cc(B(O)O)ccc3-n3ccnc3)ccc12` [Example 3, [3-(4-aminocinnolin-7-yl)-4-(1H-imidazol-1-yl)phenyl]boronic acid]: the IC50 is 66.1 nM.
For the compound `COc1cc(-n2nccn2)c(-c2ccc3c(N)cnnc3c2)cc1B(O)O` [Example 33, [5-(4-aminocinnolin-7-yl)-2-methoxy-4-(2H-1,2,3-triazol-2-yl)phenyl]boronic acid], the IC50 is 1.07 nM.
Turning to `Cc1cc(-n2cccn2)c(-c2ccc3c(N)cnnc3c2)cc1B(O)O` [Example 8, [5-(4-aminocinnolin-7-yl)-2-methyl-4-(1H-pyrazol-1-yl)phenyl]boronic acid], the IC50 was 14.8 nM.
For `COc1cc(-c2nc[nH]n2)c(-c2ccc3c(N)cnnc3c2)cc1B(O)O` [Example 31, [5-(4-aminocinnolin-7-yl)-2-methoxy-4-(1H-1,2,4-triazol-3-yl)phenyl]boronic acid] the value was 1.05 nM; for `COc1cc(-n2cc(C(F)(F)F)cn2)c(-c2ccc3c(N)cnnc3c2)cc1B(O)O` [Example 81, 5-(4-aminocinnolin-7-yl)-2-methoxy-4-[4-(trifluoromethyl)pyrazol-1-yl]phenyl]boronic acid formic acid salt], 1.17 nM.
The value for `COc1cc(-c2ncco2)c(-c2ccc3c(N)cnnc3c2)cc1B(O)O` [Example 32, [5-(4-aminocinnolin-7-yl)-2-methoxy-4-(1,3-oxazol-2-yl)phenyl]boronic acid formic acid salt] was 0.832 nM; that for `CC1COc2cc(-n3cccn3)c(-c3ccc4c(N)cnnc4c3)cc2B(O)O1` (single isomer, unassigned; enantiomer 2) [Example 73, 7-(1-hydroxy-3-methyl-7-pyrazol-1-yl-3,4-dihydro-2,5,1-benzodioxaborepin-8-yl)cinnolin-4-amine enantiomer 2] was 1.51 nM; that for `Nc1cnnc2cc(-c3cc(B(O)O)ccc3-n3ccc(C(F)F)n3)ccc12` [Example 14, [3-(4-aminocinnolin-7-yl)-4-[3-(difluoromethyl)-1H-pyrazol-1-yl]phenyl]boronic acid formic acid salt] was 14.8 nM.
The value for `COc1cc(-c2ncc(C(F)F)o2)c(-c2ccc3c(N)cnnc3c2)cc1B(O)O` [Example 90, [5-(4-aminocinnolin-7-yl)-4-[5-(difluoromethyl)oxazol-2-yl]-2-methoxy-phenyl]boronic acid formic acid salt] was 1.02 nM; that for `Cc1nc(-c2ccc(B(O)O)cc2-c2ccc3c(N)cnnc3c2)ns1` [Example 18, [3-(4-aminocinnolin-7-yl)-4-(5-methyl-1,2,4-thiadiazol-3-yl)phenyl]boronic acid] was 1.62 nM.
As to `CS(=O)(=O)Nc1cnn(-c2ccc(B(O)O)cc2-c2ccc3c(N)cnnc3c2)c1` [Example 21, [3-(4-aminocinnolin-7-yl)-4-(4-methanesulfonamido-1H-pyrazol-1-yl)phenyl]boronic acid], the IC50 is 1.86 nM.
The value for `COc1cc(-n2cccn2)c(-c2ccc3c(N)nnc(C)c3c2)cc1B(O)O` [Example 47, [5-(1-amino-4-methyl-phthalazin-6-yl)-2-methoxy-4-pyrazol-1-yl-phenyl]boronic acid] was 1.7 nM; that for `COc1cc(-n2cc(OC(F)F)cn2)c(-c2ccc3c(N)cnnc3c2)cc1B(O)O` [Example 84, [5-(4-aminocinnolin-7-yl)-4-[4-(difluoromethoxy)pyrazol-1-yl]-2-methoxy-phenyl]boronic acid formic acid salt] was 0.741 nM.
